Each block holds one compound with its values, some of them ahead of it.
Tests used:
blood glucose [1] = test: Hypoglycemic activity: dose-effect relationship in normal rats; format: in vivo, male Wistar rats
Protocol: Five male Wistar rats weighing about 170g were used at each dosage level. […] 2, 3 and 5 hours after administration, a blood sample was taken from the tail vein of the rat and assayed for glucose by the glucose oxidase method.

blood glucose [2] = test: Glucose tolerance test in normal rats; format: in vivo, male Wistar rats
Protocol: Five male Wistar rats weighing about 200g were used at each dose level. An aqueous solution or suspension of a test compound was orally administered by means of a stomach tube to each rat which had not been fed for 24 hours before administration. […] Blood samples were taken from the tail vein just before and 15, 30, 60 and 90 minutes after glucose loading, and were assayed for blood glucose. The glucose tolerance of the rats was estimated by the increase in blood glucose during the 90 minutes after glucose loading [formula]

blood glucose [3] = test: Glucose tolerance test in streptozotocin-induced mildly diabetic rats; format: in vivo, male Wistar rats (streptozotocin diabetic)
Protocol: An aqueous solution or suspension of a test compound was orally administered to male Wistar rats which had not been fed for 24 hours prior to oral administration and which had been rendered diabetic for about 2 months by a single intravenous injection of streptozotocin (20 mg/kg body weight). Control diabetic rats received water. Unfed (fasted) and fed blood glucose levels of the rats were 89 ± 1~103 ± 4 mg/dl and 123 ± 2~189 ± 11 mg/dl, respectively. […] Blood samples were taken from the tail vein just before and 15, 30, 60 and 90 minutes after glucose loading, and were assayed for blood glucose. The glucose tolerance of the rats was estimated by the increase in blood glucose during the 90 minutes after glucose loading, i.e., [formula]

[4] = system: immunoreactive insulin (IRI); test: Insulin releasing action; format: in vivo, male Wistar rat
Protocol: A saline solution containing a test compound was injected into the femoral vein of a normal male Wistar rat weighing about 200 g under pentobarbital anesthesia (5 rats/group). Control rats received a saline injection. Blood samples were taken from the tail vein before and 10, 20, 30 and 40 minutes after injection of the test compound, and were assayed for immunoreactive insulin (IRI) by the method of C. R. Morgan et al (Diabetes, 12, 115.1963).

platelet aggregation = test: Inhibitory action on collagen-induced platelet aggregation in platelet rich plasma; format: cell-based; settings: concentration giving 50% inhibition of reaction rate of collagen-induced platelet aggregation, rat platelet rich plasma, 30° C; read-out: Inhibitory Action ID50
Protocol: Platelet rich plasma was prepared by centrifugation (1000 rpm, 5 min.) of fresh citrated rat blood. Fifty microliters of a solution containing a test compound at various concentrations were added to 0.4 ml of the platelet rich plasma, and the mixture was stirred for 1 minute at 1100 rpm and 30° C. Then, 50 μl of a collagen suspension was added to initiate platelet aggregation, which was measured turbidometrically according to G.V.R. Born (Nature, 194, 927, 1962). The ID50 values represent the concentration (mM) of the compound giving a 50% inhibition of the reaction rate of […] platelet aggregation.

serum lactate = test: Effect on serum lactate level; format: in vivo, male Wister rat; settings: 200 mg/kg daily oral for 4 days; for Percent of Initial Serum Lactate, 24 hrs: just before the 2nd dosing; for Percent of Initial Serum Lactate, 76 hrs: 3 hours after the last dosing
Protocol: An aqueous solution or suspension of a test compound was orally administered to a normal male Wister rat weighing about 200 g at a daily dose of 200 mg/kg body weight for 4 days (5 rats/group). Blood samples were taken consecutively from the tail vein, and were assayed for serum lactate by the method of Hans-Jurgens Hohorst (Methods of Enzymatic Analysis, ed. by Hans Ulrich Bergmayer, Academic Press Inc., New York, 1965).

blood glucose [5] = test: Long-term administration in streptozotocin-induced diabetic rats: fed blood glucose; format: in vivo, male Wistar rats (streptozotocin diabetic); settings: 485 ± 18 at start, control 415 ± 27
Protocol: (§1) Diabetes was induced in male Wistar rats weighing about 170 g by a single intraperitoneal (60 mg/kg body weight) or intravenous (35 mg/kg) injection of streptozotocin. […] These rats were treated with Compound A, tolubutamide or phenformin at a daily oral dose of 25, 50 or 10 mg/kg body weight, respectively. Control diabetic rats received no treatment. The treatment was started 1 month after streptozotocin injection and continued for 4 (tolubutamide and phenformin) or 5 months (Compound A).
Fed blood glucose levels of the rats were 485 ± 18 mg/dl at the start of the treatment and 415 ± 27 (control group), 423 ± 17 (Compound A group), 447 ± 15 (tolubutamide group) and 425 ± 29 mg/dl (phenformin group) at the end of the experiment.

serum lipids = test: Long-term administration in streptozotocin-induced diabetic rats: serum lipids; format: in vivo, male Wistar rats (streptozotocin diabetic); settings: for hyperlipidemia / serum triglyceride tendency (in words): long-term administration, diabetic rats
Protocol: as §1
(§2) At the end of the experiment, the rats were sacrificed for histological examination of the kidneys and the liver and for determination of serum lipids.

[6] = Acute toxicity in rats by oral administration; settings: rat, in vivo, male Donryu rats, mortality on the 7th day, Litchfield and Wilcoxon
Protocol: Acute Toxicity tests were carried out in rats by oral administration. Each LD50 was calculated from the mortality percentage on the 7th day according to the method of Litchfield and Wilcoxon. Ten male rats of the Donryu strain were used at each dose level.

kidneys = test: Long-term administration in streptozotocin-induced diabetic rats: histological examination of the kidneys; format: in vivo, male Wistar rats (streptozotocin diabetic)
Protocol: as §1, §2

[7] = 25 mg/kg oral, fasted normal rats
[8] = 10 mg/kg oral, 1 hour prior to glucose loading
[9] = 10 mg/kg oral, 1 hour prior to glucose loading (1 g/kg i.p.), control 121 ± 14 (A), 127 ± 8 (B, C)
[10] = 10 mg/kg oral, 1 hour prior to glucose loading, control 265 ± 21 (A), 206 ± 18 (B, C)
[11] = 25 mg/kg daily, 5 months, 7 rats
[12] = 25 mg/kg i.v., control 50 ± 8, 0-40 minutes
[13] = 10 mg/kg daily, 4 months, 7 rats, * = significant, p < 0.05 vs. diabetic control
[14] = 20 mg/kg oral, given 30 minutes prior to glucose loading
[15] = 50 mg/kg daily, 4 months, 8 rats

Compound: 1-methyl-2-benzhydryliminoimidazolidine.hydroiodide [Example 4]
Decrease in blood glucose (% based on the control), 3 hrs (blood glucose [1]; [7]): 32%
Decrease in blood glucose (% based on the control), 5 hrs (blood glucose [1]; [7]): 19%

Compound: 2-benzhydryliminoimidazolidine hydrochloride [Example 3]
Decrease in blood glucose (% based on the control), 3 hrs (blood glucose [1]; [7]): 39%
Decrease in blood glucose (% based on the control), 5 hrs (blood glucose [1]; [7]): 39%

Compound: CN1CCNC1=NC(c1ccccc1)c1ccccc1 [Compound A, 1-methyl-2-benzhydryliminoimidazolidine]
Increase in glucose tolerance (blood glucose [2]; [8]): 52.1%
Increase in blood glucose during the 90 minutes after glucose loading, test compound (head [drawing 13]) (blood glucose [2]; [9]): 58 ± 4
Improvement of glucose tolerance (blood glucose [3]; [8]): 43.0%
Increase in blood glucose during the 90 minutes after glucose loading, test compound (head [drawing 15]) (blood glucose [3]; [10]): 151 ± 43
Insulin Released [ΣΔIRI (0-40)] ([4]; 25 mg/kg i.v., second column (control 42 ± 19), 0-40 minutes): 208 ± 21 μunit/ml serum
IC50 (platelet aggregation): 320 µM
Percent of Initial Serum Lactate, 24 hrs (serum lactate): 114.9%
Percent of Initial Serum Lactate, 76 hrs (serum lactate): 94.6%
Fed blood glucose level at the end of the experiment (blood glucose [5]; 25 mg/kg daily oral, 5 months): 423 ± 17 mg/dL
Serum cholesterol (serum lipids; [11]): 78.7 % of control
Serum free fatty acid (serum lipids; [11]): 86.1 % of control
Serum triglyceride (serum lipids; 25 mg/kg daily, 5 months, 7 rats, * = significant, p < 0.05 vs. diabetic control): 53.0 % of control
LD50 at 168 h [6]: 660 mg/kg

Compound: c1ccc(C(CC2=NCCN2)c2ccccc2)cc1 [Compound B, 2-(2,2-diphenylethyl)-2-imidazoline]
Increase in glucose tolerance (blood glucose [2]; [8]): 96.9%
Increase in blood glucose during the 90 minutes after glucose loading, test compound (head [drawing 13]) (blood glucose [2]; [9]): 4 ± 12
Improvement of glucose tolerance (blood glucose [3]; [8]): 74.8%
Increase in blood glucose during the 90 minutes after glucose loading, test compound (head [drawing 15]) (blood glucose [3]; [10]): 52 ± 12
Insulin Released [ΣΔIRI (0-40)] [4, 12]: 250 ± 13 μunit/ml serum
IC50 (platelet aggregation): 50 µM
Percent of Initial Serum Lactate, 24 hrs (serum lactate): 139.6%
Percent of Initial Serum Lactate, 76 hrs (serum lactate): 113.3%
LD50 at 168 h [6]: 562 mg/kg

IC50 (platelet aggregation): 120 µM
Compound: CN1CCN=C1CC(c1ccccc1)c1ccccc1 [Compound C, 1-methyl-2-(2,2-diphenylethyl)-2-imidazoline]
Increase in glucose tolerance (blood glucose [2]; [8]): 26.0%
Increase in blood glucose during the 90 minutes after glucose loading, test compound (head [drawing 13]) (blood glucose [2]; [9]): 94 ± 8
Improvement of glucose tolerance (blood glucose [3]; [8]): 17.5%
Increase in blood glucose during the 90 minutes after glucose loading, test compound (head [drawing 15]) (blood glucose [3]; [10]): 170 ± 15
Insulin Released [ΣΔIRI (0-40)] [4, 12]: 214 ± 17 μunit/ml serum

Compound: CN1CCN(C(=O)c2ccccc2)C1=NC(c1ccccc1)c1ccccc1 [Compound D, 1-methyl-2-benzhydrylimino-3-benzoylimidazolidine]
IC50 (platelet aggregation): 270 µM
LD50 at 168 h [6]: > 1000 mg/kg

Compound: CN1CCN(C(=O)c2cccs2)C1=NC(c1ccccc1)c1ccccc1 [Compound E, 1-methyl-2-benzhydrylimino-3-thienoylimidazolidine]
IC50 (platelet aggregation): 130 µM
LD50 at 168 h [6]: > 1000 mg/kg

IC50 (platelet aggregation): 480 µM
Compound: CN1CCN(C(=O)c2cccnc2)C1=NC(c1ccccc1)c1ccccc1 [Compound F, 1-methyl-2-benzhydrylimino-3-nicotinoyl-imidazolidine]

Compound: CN1CCCC1=NC(c1ccccc1)c1ccccc1 [Compound Q, Benzhydryl Lactamimide, reference compound]
Insulin Released [ΣΔIRI (0-40)] [4, 12]: 198 ± 16 μunit/ml serum

Compound: CN1CCCC1=NC(c1ccccc1)c1ccccc1 [Compound Z, reference compound]
Percent of Initial Serum Lactate, 24 hrs (serum lactate): 152.1%
Percent of Initial Serum Lactate, 76 hrs (serum lactate): 218.8%

Compound: [H]/N=C(/N)N/C(=N/[H])NCCc1ccccc1 [Phenformin, phenformin, reference compound]
Decrease in blood glucose (% based on the control), 2 hrs (blood glucose [1]; Dose = 100 mg/kg oral): 10%
Decrease in blood glucose (% based on the control), 3 hrs (blood glucose [1]; Dose = 100 mg/kg oral): 15%
Decrease in blood glucose (% based on the control), 5 hrs (blood glucose [1]; Dose = 100 mg/kg oral): 15%
Percent of Initial Serum Lactate, 24 hrs (serum lactate): 196.6%
Percent of Initial Serum Lactate, 76 hrs (serum lactate): 283.6%
Fed blood glucose level at the end of the experiment (blood glucose [5]; 10 mg/kg daily oral, 4 months): 425 ± 29 mg/dL
Serum cholesterol (serum lipids; [13]): 180.0 % of control
Serum free fatty acid (serum lipids; [13]): 157.0 % of control
Serum triglyceride (serum lipids; [13]): 225.7 % of control
hyperlipidemia / serum triglyceride tendency (in words) (serum lipids): increased tendency of hyperlipidemia

Compound: CCCCNC(=O)NS(=O)(=O)c1ccc(C)cc1 [Tolubutamide, tolubutamide, reference compound]
Decrease in blood glucose (% based on the control), 2 hrs (blood glucose [1]; [7]): 20%
Decrease in blood glucose (% based on the control), 3 hrs (blood glucose [1]; [7]): 24%
Decrease in blood glucose (% based on the control), 5 hrs (blood glucose [1]; [7]): 20%
Increase in glucose tolerance (blood glucose [2]; [14]): 31.4%
Increase in blood glucose during the 90 minutes after glucose loading, test compound (head [drawing 13]) (blood glucose [2]; 20 mg/kg oral, given 30 minutes prior to glucose loading (1 g/kg i.p.), control 121 ± 14): 83 ± 14
Improvement of glucose tolerance (blood glucose [3]; [14]): 32.6%
Increase in blood glucose during the 90 minutes after glucose loading, test compound (head [drawing 15]) (blood glucose [3]; 20 mg/kg oral, given 30 minutes prior to glucose loading, 3 rats, control 265 ± 21): 179 ± 23
Insulin Released [ΣΔIRI (0-40)] ([4]; 50 mg/kg i.v., control 50 ± 8, 0-40 minutes): 189 ± 26 μunit/ml serum
Insulin Released [ΣΔIRI (0-40)] ([4]; 50 mg/kg i.v., second column (control 42 ± 19), 0-40 minutes): 141 ± 14 μunit/ml serum
Fed blood glucose level at the end of the experiment (blood glucose [5]; 50 mg/kg daily oral, 4 months): 447 ± 15 mg/dL
Serum free fatty acid (serum lipids; [15]): 133.0 % of control
Serum triglyceride (serum lipids; [15]): 186.8 % of control
Serum cholesterol (serum lipids; 50 mg/kg daily, 4 months, 8 rats, * = significant, p < 0.05 vs. diabetic control): 150.0 % of control
hyperlipidemia / serum triglyceride tendency (in words) (serum lipids): increased tendency of hyperlipidemia
kidney histology: diffuse glomerulosclerosis and tubular alterations (in words) (kidneys): to some extent, deteriorated

— US4136188A, “Treatment of diabetes with 2-substituted-1,3-diazacyclic compounds” (priority 1976, dated 1979)
